Assay results: PubChem BioAssay AID248 (DTP/NCI, 2004)
“And” between values parts separate entries of the source, which are not always exact repeats. Equal entries are not always repeated. Toxic doses and inconclusive results are not listed. Cut-off read from the data, not from the text of the source: active = T/C of 150% or more; inactive = T/C below 125%.

Tested on: L1210 leukemia ip in BDF1 mice, survival T/C
Test: NCI In Vivo Anticancer Drug Screen. Data for tumor model L1210 Leukemia (intraperitoneal) in B6D2F1 (BDF1) mice
Details: endpoint: mean survival time, higher = longer survival
In short: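 Transplantable tumor model; survival measured in treated vs vehicle control mice. Value = treated/control.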

[1] = dose: 100.0 mg/kg/injection, schedule: Q01DX009 (ip), vehicle: saline with Tween-80
[2] = dose: 100.0 mg/kg/injection, schedule: Q04DX003 (ip), vehicle: saline with Tween-80
[3] = dose: 200.0 mg/kg/injection, schedule: Q01DX009 (ip), vehicle: saline with Tween-80
[4] = dose: 200.0 mg/kg/injection, schedule: Q04DX003 (ip), vehicle: saline with Tween-80
[5] = dose: 400.0 mg/kg/injection, schedule: Q01DX009 (ip), vehicle: saline with Tween-80
[6] = dose: 400.0 mg/kg/injection, schedule: Q04DX003 (ip), vehicle: saline with Tween-80
[7] = dose: 200.0 mg/kg/injection, schedule: Q04DX002 (ip), vehicle: Klucel (hydroxypropylcellulose) (HPC)
[8] = dose: 400.0 mg/kg/injection, schedule: Q04DX002 (ip), vehicle: Klucel (hydroxypropylcellulose) (HPC)
[9] = dose: 50.0 mg/kg/injection, schedule: Q04DX003 (ip), vehicle: saline with Tween-80
[10] = dose: 50.0 mg/kg/injection, schedule: Q01DX009 (ip), vehicle: saline with Tween-80
[11] = dose: 100.0 mg/kg/injection, schedule: Q01DX009 (ip), vehicle: other
[12] = dose: 200.0 mg/kg/injection, schedule: Q01DX009 (ip), vehicle: other
[13] = dose: 100.0 mg/kg/injection, schedule: Q01DX009 (ip), vehicle: Klucel (hydroxypropylcellulose) (HPC)
[14] = dose: 100.0 mg/kg/injection, schedule: Q04DX003 (ip), vehicle: Klucel (hydroxypropylcellulose) (HPC)
[15] = dose: 200.0 mg/kg/injection, schedule: Q01DX009 (ip), vehicle: Klucel (hydroxypropylcellulose) (HPC)
[16] = dose: 200.0 mg/kg/injection, schedule: Q04DX003 (ip), vehicle: Klucel (hydroxypropylcellulose) (HPC)
[17] = dose: 400.0 mg/kg/injection, schedule: Q04DX003 (ip), vehicle: Klucel (hydroxypropylcellulose) (HPC)
[18] = dose: 100.0 mg/kg/injection, schedule: Q01DX001 (ip), vehicle: carboxymethylcellulose (CMC)
[19] = dose: 200.0 mg/kg/injection, schedule: Q01DX001 (ip), vehicle: carboxymethylcellulose (CMC)
[20] = dose: 400.0 mg/kg/injection, schedule: Q01DX001 (ip), vehicle: carboxymethylcellulose (CMC)
[21] = dose: 100.0 mg/kg/injection, schedule: Q04DX003 (ip), vehicle: saline
[22] = dose: 200.0 mg/kg/injection, schedule: Q04DX003 (ip), vehicle: saline
[23] = dose: 400.0 mg/kg/injection, schedule: Q04DX003 (ip), vehicle: saline

Measured: T/C

C1=C(c2ccccc2)CCCCC1
inactive: [1] 87 % of control | [2] 95 % of control | [3] 96 % of control | [4] 100 % of control | [5] 99 % of control | [6] 98 % of control

CCOC(=O)NC1CCC2c3ccccc3C([N+](=O)[O-])(C1)c1ccccc12 (stereo unspecified)
inactive: [2] 106 % of control | [4] 95 % of control | [6] 90 % of control

COC(=O)C1(C)CCCC2(C)C3CCC4(C)CC3(CCO4)CCC12 (stereo unspecified)
inactive: [7] 87 % of control | [8] 95 % of control

COc1cc(NC(C)CCCN)c2ncccc2c1 (stereo unspecified)
inactive: dose: 25.0 mg/kg/injection, schedule: Q04DX003 (ip), vehicle: saline with Tween-80 104 % of control | [9] 95 % of control | [2] 95 % of control and 105 % of control

O=C1c2ccccc2C(=O)N1CCc1ccccn1
inactive: [10] 101 % of control | [1] 95 % of control | [2] 102 % of control | [3] 93 % of control | [4] 101 % of control

C=CC[Se]c1ncnc2c1ccn2C1OC(CO)C(O)C1O (stereo unspecified)
inactive: dose: 12.5 mg/kg/injection, schedule: Q01DX005 (ip), vehicle: saline 101 % of control | dose: 25.0 mg/kg/injection, schedule: Q01DX005 (ip), vehicle: saline 107 % of control | dose: 50.0 mg/kg/injection, schedule: Q01DX005 (ip), vehicle: saline 107 % of control | dose: 100.0 mg/kg/injection, schedule: Q01DX005 (ip), vehicle: saline 102 % of control

O=C(COc1ccc(Br)cc1)Nc1ccc(Br)cc1
inactive: dose: 100.0 mg/kg/injection, schedule: Q04DX002 (ip), vehicle: Klucel (hydroxypropylcellulose) (HPC) 95 % of control | [7] 95 % of control | [8] 89 % of control

CCCNC(=O)Oc1ccccc1C(=O)NCO
inactive: [11] 101 % of control | [12] 96 % of control

CC(CCCCCOC(=O)Nc1ccccc1)OC(=O)Nc1ccccc1 (stereo unspecified)
inactive: dose: 100.0 mg/kg/injection, schedule: Q01DX001 (ip), vehicle: other 98 % of control | dose: 200.0 mg/kg/injection, schedule: Q01DX001 (ip), vehicle: other 87 % of control | dose: 400.0 mg/kg/injection, schedule: Q01DX001 (ip), vehicle: other 96 % of control

CCN(N=Nc1ccc(C)cc1)N=Nc1ccc(C)cc1
inactive: [13] 93 % of control | [14] 100 % of control | [15] 88 % of control | [16] 100 % of control | dose: 400.0 mg/kg/injection, schedule: Q01DX009 (ip), vehicle: Klucel (hydroxypropylcellulose) (HPC) 88 % of control | [17] 93 % of control

CSc1n[n+](-c2ccccc2)cs1
inactive: dose: 100.0 mg/kg/injection, schedule: Q01DX001 (ip), vehicle: saline 103 % of control | dose: 200.0 mg/kg/injection, schedule: Q01DX001 (ip), vehicle: saline 103 % of control | dose: 400.0 mg/kg/injection, schedule: Q01DX001 (ip), vehicle: saline 100 % of control

O=C(O)c1ccc2ccc3cccnc3c2n1
inactive: [2] 96 % of control | [4] 113 % of control

Cc1cc(NS(=O)(=O)c2ccc(N=Nc3c(N)nc(N)nc3N)cc2)nc(C)n1
inactive: [18] 103 % of control | [19] 97 % of control | [20] 105 % of control

CC(=O)OCCSCCc1ccccc1
inactive: dose: 62.5 mg/kg/injection, schedule: Q01DX009 (ip), vehicle: saline with Tween-80 97 % of control | dose: 125.0 mg/kg/injection, schedule: Q01DX009 (ip), vehicle: saline with Tween-80 113 % of control | dose: 250.0 mg/kg/injection, schedule: Q01DX009 (ip), vehicle: saline with Tween-80 94 % of control

CCN(CC)CCNC(=O)c1ccc2nc(N)sc2c1
inactive: dose: 75.0 mg/kg/injection, schedule: Q01DX001 (ip), vehicle: saline 96 % of control | dose: 150.0 mg/kg/injection, schedule: Q01DX001 (ip), vehicle: saline 91 % of control

O=[N+]([O-])c1ccc(-c2ccccc2Cl)c([N+](=O)[O-])c1
inactive: [18] 91 % of control | [19] 91 % of control | [20] 97 % of control

CC(C)C(=O)Nc1cccc(O)c1
inactive: [1] 90 % of control | [3] 90 % of control

COc1ccccc1NC(=O)OCc1ccco1
inactive: [11] 106 % of control | [12] 101 % of control | dose: 400.0 mg/kg/injection, schedule: Q01DX009 (ip), vehicle: other 104 % of control

C=C(Br)CN1C(=O)c2ccccc2C1=O
inactive: dose: 100.0 mg/kg/injection, schedule: Q01DX009 (ip), vehicle: saline 89 % of control | [21] 101 % of control | dose: 200.0 mg/kg/injection, schedule: Q01DX009 (ip), vehicle: saline 112 % of control | [22] 104 % of control | dose: 400.0 mg/kg/injection, schedule: Q01DX009 (ip), vehicle: saline 87 % of control | [23] 93 % of control

Clc1nc(Cl)c(Cl)nc1Cl
inactive: dose: 25.0 mg/kg/injection, schedule: Q01DX009 (ip), vehicle: saline with Tween-80 102 % of control | [10] 100 % of control | [1] 100 % of control | [3] 110 % of control | [5] 96 % of control

COc1cc(N/C(N)=N\C(N)=NC(C)C)cc(OC)c1OC
inactive: dose: 50.0 mg/kg/injection, schedule: Q01DX009 (ip), vehicle: saline sonified 98 % of control | dose: 100.0 mg/kg/injection, schedule: Q01DX009 (ip), vehicle: saline sonified 101 % of control | [21] 104 % of control | dose: 200.0 mg/kg/injection, schedule: Q01DX009 (ip), vehicle: saline sonified 102 % of control | [22] 110 % of control

CCOC(=O)Nc1cc(NC(c2ccccc2)c2ccccc2)c([N+](=O)[O-])c(NC(=O)OCC)n1
inactive: [18] 97 % of control | [19] 92 % of control | [20] 92 % of control

CC(=O)NOCc1ccc([N+](=O)[O-])cc1
inactive: [14] 95 % of control | [16] 100 % of control | [17] 97 % of control

O=S(=O)(NS(=O)(=O)c1ccc(Cl)cc1)c1ccc(Cl)cc1
inactive: dose: 50.0 mg/kg/injection, schedule: Q01DX009 (ip), vehicle: Klucel (hydroxypropylcellulose) (HPC) 93 % of control | [13] 96 % of control | [14] 88 % of control | [15] 104 % of control | [16] 87 % of control

O=C1OC(=O)C2CC=CCC12 (stereo unspecified)
inactive: [2] 106 % of control | [4] 106 % of control | [6] 98 % of control

CC(=O)NC1C(CO)OC(n2cnc3c(N)nc(Cl)nc32)C1O (stereo unspecified)
inactive: dose: 100.0 mg/kg/injection, schedule: Q01DX001 (ip), vehicle: Klucel (hydroxypropylcellulose) (HPC) 94 % of control | dose: 100.0 mg/kg/injection, schedule: Q01DX001 (ip), vehicle: saline with Tween-80 105 % of control | dose: 200.0 mg/kg/injection, schedule: Q01DX001 (ip), vehicle: Klucel (hydroxypropylcellulose) (HPC) 96 % of control | dose: 200.0 mg/kg/injection, schedule: Q01DX001 (ip), vehicle: saline with Tween-80 107 % of control | dose: 400.0 mg/kg/injection, schedule: Q01DX001 (ip), vehicle: Klucel (hydroxypropylcellulose) (HPC) 91 % of control | dose: 400.0 mg/kg/injection, schedule: Q01DX001 (ip), vehicle: saline with Tween-80 100 % of control

Cc1c(O)c2cccc(-c3ccccc3)c2oc1=O
inactive: [21] 87 % of control | [22] 91 % of control | [23] 109 % of control

O=S(=O)(c1ccccc1)C(Br)Br
inactive: [9] 101 % of control | [2] 103 % of control | [4] 101 % of control

O=C1c2ccccc2CCC12OC2c1ccc(F)cc1 (stereo unspecified)
inactive: [14] 97 % of control | [16] 97 % of control | [17] 103 % of control

O=C(Nc1ccccc1Cl)c1cccnc1
inactive: dose: 100.0 mg/kg/injection, schedule: Q04DX003 (ip), vehicle: other 96 % of control | dose: 200.0 mg/kg/injection, schedule: Q04DX003 (ip), vehicle: other 97 % of control | dose: 400.0 mg/kg/injection, schedule: Q04DX003 (ip), vehicle: other 94 % of control
